Assays:
[1] = tested on: rabbit serum obtained by immunizing a rabbit with the SARS-CoV strain Frankfurt 1; format: binding; design: Binding of a rabbit serum to linear peptides / Binding of a rabbit serum to looped peptides / Rabbit serum linear peptides / Rabbit serum looped peptides / Binding of a rabbit serum to linear peptides of protein N of SARS-CoV Urbani (Rabbit serum linear peptides) / Binding of a rabbit serum to looped/cyclic peptides of protein N of SARS-CoV Urbani (Rabbit serum looped peptides): unit not given here
[2] = tested on: recombinant human anti-SARS-CoV antibody 03-018; format: binding; design: Binding of antibody 03-018 to linear peptides of the N protein of SARS-CoV Urbani / Binding of antibody 03-018 to looped/cyclic peptides of the N protein of SARS-CoV Urbani: unit not given here
[3] = tested on: antibodies in sera from SARS patients (sera 1a, 1b, 2, 6, 37, 62, London, SARS-yellow, SARS-green); format: binding, human; design: Binding of serum 6 to linear peptides of protein X1 of SARS-CoV Urbani / Binding of serum 37 to linear peptides of protein X1 of SARS-CoV Urbani / Binding of serum 6 to looped/cyclic peptide (PEPSCAN-ELISA) / Binding of serum 37 to looped/cyclic peptide (PEPSCAN-ELISA) / Binding of serum 37 to looped/cyclic peptides of protein X1 of SARS-CoV Urbani / Binding of serum 6 to linear peptides of protein X2 / Binding of serum 37 to linear peptides of protein X2 / Binding of serum 37 to looped/cyclic peptides of protein X2 of SARS-CoV Urbani / Binding of serum 6 to linear peptides of protein M of SARS-CoV Urbani / Binding of serum 37 to linear peptides of protein M of SARS-CoV Urbani / Binding of serum 6 to looped/cyclic peptides of protein M of SARS-CoV Urbani / Binding of serum 37 to looped/cyclic peptides of protein M of SARS-CoV Urbani / Binding of serum 6 to linear peptides of protein X3 of SARS-CoV Urbani / Binding of serum 37 to linear peptides of protein X3 of SARS-CoV Urbani / Binding of serum 37 to looped/cyclic peptides of protein X3 of SARS-CoV Urbani / Binding of serum 6 to linear peptides of protein X4 of SARS-CoV Urbani / Binding of serum 37 to linear peptides of protein X4 of SARS-CoV Urbani / Binding of serum 37 to looped/cyclic peptides of protein X4 of SARS-CoV Urbani / Binding of serum 6 to linear peptides of protein X5 of SARS-CoV Urbani / Binding of serum 37 to linear peptides of protein X5 of SARS-CoV Urbani / Binding of serum 37 to looped/cyclic peptides of protein X5 of SARS-CoV Urbani / Binding of serum 6 to linear peptides of protein N of SARS-CoV Urbani / Binding of serum 37 to linear peptides of protein N of SARS-CoV Urbani / Binding of serum 6 to linear peptide (PEPSCAN-ELISA) / Binding of serum 1a to looped/cyclic peptides of protein N of SARS-CoV Urbani / Binding of serum 1b to looped/cyclic peptides of protein N of SARS-CoV Urbani / Binding of serum 2 to looped/cyclic peptides of protein N of SARS-CoV Urbani / Binding of serum 6 to looped/cyclic peptides of protein N of SARS-CoV Urbani / Binding of serum 37 to looped/cyclic peptides of protein N of SARS-CoV Urbani / Binding of serum 62 to looped/cyclic peptides of protein N of SARS-CoV Urbani / Binding of serum London to looped/cyclic peptides of protein N of SARS-CoV Urbani / Binding of serum SARS-green to looped/cyclic peptides of protein N of SARS-CoV Urbani: unit not given here
[4] = tested on: control sera (pooled serum of ten healthy LUMC hospital workers; commercial negative donor pooled serum from the Dutch bloodbank); format: binding, human; design: Binding of Control serum LUMC to linear peptides / Binding of Control serum Blood-bank to linear peptides / Binding of Control serum LUMC to looped peptides / Binding of Control Serum Blood-Bank to Looped peptides / Binding of Control serum LUMC to linear peptides of the protein M of SARS-CoV Urbani / Binding of Control serum Blood-bank to linear peptides of the protein M of SARS-CoV Urbani / Binding of Control serum LUMC to looped peptides of the protein M of SARS-CoV Urbani / Binding of Control Serum Blood-Bank to Looped peptides of the protein M of SARS-CoV Urbani: unit not given here

In the case of ATVLQLPQGTTLPKG, the “Binding of a rabbit serum to linear peptides of protein N of SARS-CoV Urbani (Rabbit serum linear peptides)” value [1] is reported as 0.2, the “Binding of a rabbit serum to looped/cyclic peptides of protein N of SARS-CoV Urbani (Rabbit serum looped peptides)” value [1] is reported as 0.3 and the “Binding of antibody 03-018 to linear peptides of the N protein of SARS-CoV Urbani” value [2] is reported as 0.1. The “Binding of antibody 03-018 to looped/cyclic peptides of the N protein of SARS-CoV Urbani” value [2] was 0.2.

In the case of DDKDPQFKDNVILLN, the “Binding of a rabbit serum to linear peptides of protein N of SARS-CoV Urbani (Rabbit serum linear peptides)” value [1] is reported as 0.1, the “Binding of a rabbit serum to looped/cyclic peptides of protein N of SARS-CoV Urbani (Rabbit serum looped peptides)” value [1] is reported as 0.4 and the “Binding of antibody 03-018 to linear peptides of the N protein of SARS-CoV Urbani” value [2] is reported as 0.1. For the same sequence, the “Binding of antibody 03-018 to looped/cyclic peptides of the N protein of SARS-CoV Urbani” value [2] was 0.3.

For YQLESTQITTDTGIE, the “Binding of serum 1a to linear peptides of protein X1 of SARS-CoV Urbani” value [3] was 0.6, the “Binding of serum 1a to looped/cyclic peptides of protein X1 of SARS-CoV Urbani” value [3] was 0.4 and the “Binding of serum 1b to linear peptides of protein X1 of SARS-CoV Urbani” value [3] was 0.5. For the same sequence, the “Binding of serum 1b to looped/cyclic peptides of protein X1 of SARS-CoV Urbani” value [3] was 0.3, the “Binding of serum 2 to linear peptides of protein X1 of SARS-CoV Urbani” value [3] was 0.4 and the “Binding of serum 2 to looped/cyclic peptides of protein X1 of SARS-CoV Urbani” value [3] was 0.1. The “Binding of serum 6 to linear peptides of protein X1 of SARS-CoV Urbani” value [3] was 0.5, the “Binding of serum 6 to looped/cyclic peptides of protein X1 of SARS-CoV Urbani” value [3] was 0.1 and the “Binding of serum 37 to linear peptides of protein X1 of SARS-CoV Urbani” value [3] was 0.6. The “Binding of serum 37 to looped/cyclic peptides of protein X1 of SARS-CoV Urbani” value [3] was 0.3, the “Binding of serum 62 to linear peptides of protein X1 of SARS-CoV Urbani” value [3] was 0.5 and the “Binding of serum 62 to looped/cyclic peptides of protein X1 of SARS-CoV Urbani” value [3] was 0.3. The “Binding of serum London to linear peptides of protein X1 of SARS-CoV Urbani” value [3] was 0.2, the “Binding of serum London to looped/cyclic peptides of protein X1 of SARS-CoV Urbani” value [3] was 0.1 and the “Binding of serum SARS-green to linear peptides of protein X1 of SARS-CoV Urbani” value [3] was 0.4. For the same sequence, the “Binding of serum SARS-green to looped/cyclic peptides of protein X1 of SARS-CoV Urbani” value [3] was 0.2, the “Binding of serum SARS-yellow to linear peptides of protein X1 of SARS-CoV Urbani” value [3] was 0.5 and the “Binding of serum SARS-yellow to looped/cyclic peptides of protein X1 of SARS-CoV Urbani” value [3] was 0.2. For the same sequence, the “Binding of Control Serum Blood-Bank to Looped peptides” value [4] was 0.3, the “Binding of Control serum Blood-bank to linear peptides” value [4] was 0.4 and the “Binding of Control serum LUMC to linear peptides” value [4] was 0.4. For the same sequence, the “Binding of Control serum LUMC to looped peptides” value [4] was 0.4, the “Binding of a rabbit serum to linear peptides” value [1] was 0.1 and the “Binding of a rabbit serum to looped peptides” value [1] was 0.4.
